“Also recorded” adds a separate entry of the source. Where two headings read alike, the source gives them in different places.
How the values were obtained:
[1] = target: CpCDPK1 (Cryptosporidium parvum (strain Iowa II), UniProt A3FQ16); assay type: biochemical
[2] = target: T1, TgCDPK1 (Toxoplasma gondii, UniProt Q9BJF5); assay type: biochemical; settings: read-out: Km for ATP
[3] = target: T1, TgCDPK1; assay type: biochemical; settings: read-out: Km of substrates
[4] = system: C. parvum; experiment: Immunosuppressed (SCID-beige) mouse C. parvum model; assay type: in vivo, Cryptosporidium parvum; settings: oral gavage once a day, days 3-7 and 10-14
Description: Shown are mean of the parasite numbers detected in 25 mg of stool from each mouse, by qRT-PCR.

[5] = system: P. berghei; set-up: species or system Plasmodium berghei; settings: in vivo
[6] = Solubility in buffers of various pH; assay type: physicochemical
[7] = system: P. falciparum; experiment: microbe, parasite or virus in culture; settings: Plasmodium falciparum, read-out: Proliferation Blocking P. falciparum (EC50, μM)
[8] = system: C. parvum; experiment: C. parvum infection of HCT-8 cells (rRNA RT-PCR); assay type: cell-based, Cryptosporidium parvum
[9] = system: T. gondii; experiment: microbe, parasite or virus in culture; settings: Toxoplasma gondii, read-out: Parasite Proliferation Assay EC50 T. gondii
[10] = system: human fibroblast; experiment: Fibroblast cytotoxicity / replication (Alamar blue); assay type: cell-based; settings: concentration at which toxicity (T) was observed
[11] = target: PfCDPK1 (Plasmodium falciparum (isolate 3D7), UniProt P62344); experiment: biochemical; settings: read-out: PfCDPK1 (% inhibition @ 3 uM)
[12] = target: PfCDPK4 (Plasmodium falciparum (isolate 3D7), UniProt Q8IBS5); experiment: biochemical; settings: read-out: PfCDPK4 (% inhibition @ 3 uM)
[13] = in vitro; settings: human
[14] = system: HL-60; experiment: Growth inhibition / toxicity, promyelocytic leukemia HL-60
[15] = system: HC 2998; experiment: Growth inhibition / toxicity, colorectal carcinoma HC 2998
[16] = in vitro; settings: human; remark: listed apart in the source
[17] = in vitro; settings: human; remark: listed apart in the source
[18] = in vitro; settings: human; remark: listed apart in the source
[19] = system: SF539; experiment: Growth inhibition / toxicity, glioma derived SF539
[20] = system: CRL8155; experiment: Growth inhibition / toxicity, human lymphocyte CRL8155
[21] = system: P. falciparum NF54 gametocytes; assay type: cell-based, Plasmodium falciparum
[22] = system: P. berghei expressing PfCDPK4-2x-myc; set-up: species or system Plasmodium berghei; settings: in vivo

Chain of CpCDPK1 (A3FQ16 1-538): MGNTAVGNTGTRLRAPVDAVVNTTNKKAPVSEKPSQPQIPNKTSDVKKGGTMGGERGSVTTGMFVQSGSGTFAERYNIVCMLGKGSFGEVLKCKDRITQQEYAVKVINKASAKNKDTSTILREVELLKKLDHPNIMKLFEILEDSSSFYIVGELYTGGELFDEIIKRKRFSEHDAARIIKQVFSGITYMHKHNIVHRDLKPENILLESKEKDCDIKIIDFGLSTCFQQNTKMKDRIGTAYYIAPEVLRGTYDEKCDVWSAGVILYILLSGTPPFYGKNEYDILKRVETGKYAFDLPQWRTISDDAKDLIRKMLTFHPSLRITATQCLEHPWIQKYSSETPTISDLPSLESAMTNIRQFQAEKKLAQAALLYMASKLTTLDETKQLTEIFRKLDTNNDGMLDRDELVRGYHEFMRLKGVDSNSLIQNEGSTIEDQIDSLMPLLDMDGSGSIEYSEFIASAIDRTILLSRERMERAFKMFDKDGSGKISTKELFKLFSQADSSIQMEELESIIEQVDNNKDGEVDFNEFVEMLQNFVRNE
T1 sequence (Q9BJF5 1-507): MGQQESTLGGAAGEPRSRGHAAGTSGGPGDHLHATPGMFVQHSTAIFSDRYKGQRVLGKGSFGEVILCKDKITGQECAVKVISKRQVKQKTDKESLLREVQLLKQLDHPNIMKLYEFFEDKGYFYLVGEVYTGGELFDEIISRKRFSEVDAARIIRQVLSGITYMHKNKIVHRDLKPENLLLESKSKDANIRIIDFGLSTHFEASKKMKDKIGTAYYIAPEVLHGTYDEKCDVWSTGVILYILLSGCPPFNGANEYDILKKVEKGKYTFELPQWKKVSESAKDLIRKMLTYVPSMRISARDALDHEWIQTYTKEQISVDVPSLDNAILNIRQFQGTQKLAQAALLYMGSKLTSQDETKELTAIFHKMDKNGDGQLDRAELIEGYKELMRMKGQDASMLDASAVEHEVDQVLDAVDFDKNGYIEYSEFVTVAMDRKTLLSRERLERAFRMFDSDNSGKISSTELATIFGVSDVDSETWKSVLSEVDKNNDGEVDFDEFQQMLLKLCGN

Nc1ncnc2c1ncn2[C@@H]1O[C@H](COP(=O)(O)OP(=O)(O)OP(=O)(O)O)[C@@H](O)[C@H]1O [ATP]
Km ([1]; read-out: Km for ATP): 9 µM | Km [2]: 10 µM | Km [3]: 10 µM

NC[C@@H]1O[C@H](O[C@H]2[C@@H](O)[C@H](O[C@@H]3[C@@H](O)[C@H](N)C[C@H](N)[C@H]3O[C@H]3O[C@H](CO)[C@@H](O)[C@H](O)[C@H]3N)O[C@@H]2CO)[C@H](N)[C@@H](O)[C@@H]1O [Paromomycin, reference compound]
parasites in stool at the end of treatment (qRT-PCR) [4]: not detected | rebound of parasite burden after treatment [4]: quickly rebounded

CC(C)(C)n1nc(-c2ccc3ccccc3c2)c2c(N)ncnc21 [NA-PP2, reference compound]
formation of oocysts in A. stephensi fed on treated mice [5]: hundreds of oocysts per mosquito

COc1ccc2cc(-c3nn(CC4CCNCC4)c4ncnc(N)c34)ccc2c1 [Compound 28, 3-(6-methoxynaphthalen-2-yl)-1-(piperidin-4-ylmethyl)-1H-pyrazolo[3,4-d]pyrimidin-4-amine]
Experimental Solubility pH 7.4 [6]: 56 μM | EC50 [7]: 31.9 µM

6-(4-amino-1-(piperidin-4-ylmethyl)-1H- pyrazolo[3,4-d]pyrimidin-3-yl)-N,N- dimethylquinolin-2-amine [Compound 68]
IC50 [1]: > 3 µM

CCOc1ccc2cc(-c3nn(CC4CCN(C)CC4)c4ncnc(N)c34)ccc2c1 [Compound 150, 3-(6-ethoxynaphthalen-2-yl)-1-((1-methylpiperidin-4-yl)methyl)-1H-pyrazolo[3,4-d]pyrimidin-4-amine]
EC50 ([8]; Cryptosporidium parvum, HCT-8, read-out: Parasite Proliferation Assay EC50 C. parvum): 0.54 µM | EC50 [9]: 0.137 µM | parasites in stool at the end of treatment (qRT-PCR) [4]: not detected | rebound of parasite burden after treatment [4]: not | Observed HFF Toxicity (T at concentration) [10]: T at 25 μM

CC(C)(C)n1nc(-c2ccc(Cl)cc2)c2c(N)ncnc21 [Compound 146]
inhibition at 3 µM [11]: 99% | inhibition at 3 µM [12]: 95%

CC(C)(C)n1nc(-c2cccc3ccccc23)c2c(N)ncnc21 [Compound 1, 1-tert-butyl-3-(naphthalen-1-yl)-1H-pyrazolo[3,4-d]pyrimidin-4-amine]
GI50 [13]: > 10 µM | Cell Toxicity HL60, % at 25 μM [14]: <30% at 25 μM | Cell Toxicity HCC2998, % at 25 μM [15]: <30% at 25 μM | GI50 [16]: > 10 µM | GI50 [17]: > 10 µM | GI50 [18]: > 10 µM | Cell Toxicity SF539, % at 25 μM [19]: <30% at 25 μM | inhibition at 3 µM [11]: 51% | Cell Toxicity CRL8155, % at 25 μM [20]: <30% at 25 μM | inhibition at 3 µM [12]: 25%

CCOc1ccc2cc(-c3nn(CC4CCNCC4)c4ncnc(N)c34)ccc2c1 [Compound 29, 3-(6-ethoxynaphthalen-2-yl)-1-(piperidin-4-ylmethyl)-1H-pyrazolo[3,4-d]pyrimidin-4-amine]
P. falciparum exflagellation [21]: complete suppression; also recorded: prevented the exflagellation | exflagellation events, repeat experiment [21]: suppressed completely | infection of A. stephensi midguts [21]: prevented | infective sporozoites in salivary glands [21]: complete absence | prevalence of oocyst infections [21]: reduced the prevalence | exflagellation [5]: sufficient to block exflagellation | formation of oocysts in A. stephensi fed on treated mice [5]: completely blocked | impact on asexual parasitaemia or gametocyte rates [5]: no impact | duration of complete suppression of exflagellation [22]: 14 h | exflagellation 20 hours after dosing [22]: some exflagellation was observed | exflagellation in blood samples from treated mice [22]: complete suppression; also recorded: completely suppressed | Experimental Solubility pH 7.4 [6]: 49 μM | parasites in stool at the end of treatment (qRT-PCR) [4]: not detected | rebound of parasite burden after treatment [4]: slowly

CC(C)(C)n1nc(-c2ccc3ccccc3c2)c2c(N)ncnc21 [Compound 2, 1-tert-butyl-3-(naphthalen-2-yl)-1H-pyrazolo[3,4-d]pyrimidin-4-amine]
GI50 ([13]; CRL8155 human lymphocyte cells): […] | C. parvum parasite levels in HCT-8 cells ([8]; inhibitor at time of infection and one hour after infection): most potent effect | GI50 ([16]; SF539 glioma-derived cells): […] | GI50 ([17]; HCC2998 (HC 2998) colorectal carcinoma cells): […] | GI50 ([18]; HL-60 human promyelocytic leukemia cells): […]

Source: patent US10544104B2, “Compositions and methods for treating toxoplasmosis, cryptosporidiosis, and other apicomplexan protozoan related diseases” (University of Washington through its Center for …, priority 2010, dated 2020)
